Assay results published in ChEMBL document CHEMBL1201862, “PubChem BioAssay data set” (2004).
The source made the active and inactive calls.

What was measured:
[1] = target: T1, RNA-binding protein pos-1 (Caenorhabditis elegans, UniProt G5EF15); assay: inhibitors of POS-1/mex-3 RNA binding, dose response, biochemical, fluorescence polarization (AID 1964);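 further: purified POS-1 fused to maltose binding protein made in E. coli; potency of compounds blocking POS-1 binding to fluorescent RNA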
T1 sequence (G5EF15 whole entry): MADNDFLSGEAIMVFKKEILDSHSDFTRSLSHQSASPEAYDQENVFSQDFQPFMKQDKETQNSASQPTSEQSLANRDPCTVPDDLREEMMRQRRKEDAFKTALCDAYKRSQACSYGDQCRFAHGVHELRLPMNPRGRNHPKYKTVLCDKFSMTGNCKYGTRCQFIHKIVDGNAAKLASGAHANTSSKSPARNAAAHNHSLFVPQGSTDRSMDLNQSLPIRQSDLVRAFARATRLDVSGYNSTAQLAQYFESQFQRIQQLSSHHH

[2] = target: T2, Zinc finger protein mex-5 (Caenorhabditis elegans, UniProt Q9XUB2); assay: MEX-5/TCR-2 RNA interaction inhibitors, dose response, biochemical, C. elegans, fluorescence polarization (AID 1960)
T2 sequence (Q9XUB2 whole entry): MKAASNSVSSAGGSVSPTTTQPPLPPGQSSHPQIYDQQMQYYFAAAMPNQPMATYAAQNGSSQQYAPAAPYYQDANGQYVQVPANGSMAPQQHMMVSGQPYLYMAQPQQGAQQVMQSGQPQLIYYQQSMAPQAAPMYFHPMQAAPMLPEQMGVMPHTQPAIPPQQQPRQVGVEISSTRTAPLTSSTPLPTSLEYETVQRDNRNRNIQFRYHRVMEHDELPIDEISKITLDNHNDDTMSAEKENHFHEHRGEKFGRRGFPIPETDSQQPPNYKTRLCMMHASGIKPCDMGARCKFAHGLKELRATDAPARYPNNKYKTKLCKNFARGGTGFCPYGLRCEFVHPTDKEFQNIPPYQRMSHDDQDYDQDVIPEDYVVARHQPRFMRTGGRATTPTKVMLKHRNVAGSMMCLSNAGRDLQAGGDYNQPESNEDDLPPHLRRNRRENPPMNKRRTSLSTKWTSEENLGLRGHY

[3] = target: T3, Carboxy-terminal domain RNA polymerase II polypeptide A small phosphatase 1 (Homo sapiens, UniProt Q9GZU7); assay: inhibitors of CTDSP1, concentration-response testing, biochemical assay, absorbance-based, actives from ultra-high-throughput screening (AID 540297); assay type: functional
T3 sequence (Q9GZU7 whole entry): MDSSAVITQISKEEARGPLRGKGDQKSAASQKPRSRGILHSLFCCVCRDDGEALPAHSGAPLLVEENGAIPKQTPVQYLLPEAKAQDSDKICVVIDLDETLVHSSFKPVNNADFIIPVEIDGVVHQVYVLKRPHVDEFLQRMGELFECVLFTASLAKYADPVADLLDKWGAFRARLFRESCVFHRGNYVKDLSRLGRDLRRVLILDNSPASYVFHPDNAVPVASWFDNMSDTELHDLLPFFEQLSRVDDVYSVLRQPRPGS

Caspase-6 = target: T4, Caspase-6 (Homo sapiens, UniProt P55212); assay: human caspase-6 inhibitors, dose response, biochemical, VEID-R110 fluorescence, cherry-pick (AID 720632)
T4 sequence (P55212 whole entry): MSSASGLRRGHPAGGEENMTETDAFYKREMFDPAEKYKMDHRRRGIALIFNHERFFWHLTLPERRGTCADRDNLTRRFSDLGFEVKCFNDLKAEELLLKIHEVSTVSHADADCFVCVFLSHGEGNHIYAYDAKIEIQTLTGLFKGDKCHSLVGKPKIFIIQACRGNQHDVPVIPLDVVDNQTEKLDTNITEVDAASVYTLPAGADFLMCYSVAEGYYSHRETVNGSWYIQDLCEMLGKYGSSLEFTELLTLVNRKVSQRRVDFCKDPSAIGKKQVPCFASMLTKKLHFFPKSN

[4] = target: T5, Histone-lysine N-methyltransferase NSD2 (Homo sapiens, UniProt O96028); assay type: biochemical
T5 sequence (O96028 whole entry): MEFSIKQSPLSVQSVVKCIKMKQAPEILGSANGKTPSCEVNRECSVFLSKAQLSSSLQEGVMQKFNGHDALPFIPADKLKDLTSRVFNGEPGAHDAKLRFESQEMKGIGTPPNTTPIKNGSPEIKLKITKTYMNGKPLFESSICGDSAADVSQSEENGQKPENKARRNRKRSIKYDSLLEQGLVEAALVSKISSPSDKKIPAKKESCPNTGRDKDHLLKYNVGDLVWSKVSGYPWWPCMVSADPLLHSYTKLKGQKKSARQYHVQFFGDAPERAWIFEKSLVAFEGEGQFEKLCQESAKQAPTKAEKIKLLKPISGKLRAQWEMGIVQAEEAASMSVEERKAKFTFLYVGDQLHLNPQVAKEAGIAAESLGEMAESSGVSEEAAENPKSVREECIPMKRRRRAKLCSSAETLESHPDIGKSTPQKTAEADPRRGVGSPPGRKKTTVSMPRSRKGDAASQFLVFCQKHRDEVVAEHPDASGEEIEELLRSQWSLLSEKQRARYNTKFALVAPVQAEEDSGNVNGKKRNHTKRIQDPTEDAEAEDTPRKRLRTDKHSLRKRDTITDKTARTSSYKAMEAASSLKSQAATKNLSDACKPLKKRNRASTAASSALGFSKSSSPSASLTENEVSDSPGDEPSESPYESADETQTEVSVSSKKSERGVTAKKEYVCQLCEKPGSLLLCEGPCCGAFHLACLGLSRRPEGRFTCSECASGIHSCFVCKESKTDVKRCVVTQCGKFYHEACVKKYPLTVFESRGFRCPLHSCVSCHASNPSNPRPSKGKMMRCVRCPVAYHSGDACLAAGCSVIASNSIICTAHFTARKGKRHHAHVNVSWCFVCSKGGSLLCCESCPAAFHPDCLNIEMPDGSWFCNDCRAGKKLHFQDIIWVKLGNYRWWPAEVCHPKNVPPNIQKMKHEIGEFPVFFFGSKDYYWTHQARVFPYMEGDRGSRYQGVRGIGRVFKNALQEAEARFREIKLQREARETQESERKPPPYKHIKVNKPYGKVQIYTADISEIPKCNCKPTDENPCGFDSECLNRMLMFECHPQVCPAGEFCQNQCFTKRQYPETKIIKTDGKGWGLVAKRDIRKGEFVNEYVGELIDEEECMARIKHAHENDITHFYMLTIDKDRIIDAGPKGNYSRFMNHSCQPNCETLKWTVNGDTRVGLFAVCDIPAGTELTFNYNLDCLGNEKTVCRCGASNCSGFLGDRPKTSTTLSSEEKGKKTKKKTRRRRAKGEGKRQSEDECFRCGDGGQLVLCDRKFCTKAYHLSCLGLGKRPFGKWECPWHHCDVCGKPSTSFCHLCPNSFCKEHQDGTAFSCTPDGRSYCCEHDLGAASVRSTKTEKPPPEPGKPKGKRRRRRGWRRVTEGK

Caspase-7 = Caspase-7 (Homo sapiens, UniProt P55210); assay: human caspase-7 inhibitors, dose response, selectivity assay for caspase-6 inhibitor project, biochemical, DEVD-R110 fluorescence, cherry-pick (AID 743295)
Chain of Caspase-7 (P55210 24-198 limits assumed): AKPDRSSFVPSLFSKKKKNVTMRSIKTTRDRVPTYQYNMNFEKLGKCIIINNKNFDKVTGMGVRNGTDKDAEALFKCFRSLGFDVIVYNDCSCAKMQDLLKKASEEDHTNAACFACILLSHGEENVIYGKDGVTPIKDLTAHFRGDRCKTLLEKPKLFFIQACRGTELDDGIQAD
Chain of Caspase-7 (P55210 207-303 limits assumed): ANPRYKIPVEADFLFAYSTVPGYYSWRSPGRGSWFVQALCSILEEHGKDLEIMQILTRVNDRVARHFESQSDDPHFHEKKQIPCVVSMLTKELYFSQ

Caspase-3 = target: T6, Caspase-3 (Homo sapiens, UniProt P42574); assay: caspase-3 enzyme inhibitors, selectivity check, dose response, selectivity assay for caspase-6 allosteric inhibitor project, biochemical, fluorescence, cherry-picked samples (AID 743291)
T6 sequence (P42574 whole entry): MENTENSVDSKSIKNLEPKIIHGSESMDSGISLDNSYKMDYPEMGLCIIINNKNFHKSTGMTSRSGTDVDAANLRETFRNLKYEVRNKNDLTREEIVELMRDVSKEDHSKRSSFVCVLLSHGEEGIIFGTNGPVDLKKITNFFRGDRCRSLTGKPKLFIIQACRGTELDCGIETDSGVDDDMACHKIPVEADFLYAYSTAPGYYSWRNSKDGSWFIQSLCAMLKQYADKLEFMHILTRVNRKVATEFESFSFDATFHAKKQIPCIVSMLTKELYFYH

HEK293 = assay: inhibitors of LMP1-driven NF-kB reporter, dose response, cell-based, HEK293, luciferase, cherry-pick (AID 588343); assay type: functional; conditions: Homo sapiens
[5] = A549 cell cytotoxicity, dose response, cytotoxicity control, plate reader, cherry-pick, antagonist series (AID 743412); assay type: functional, cell-based
[6] = HepG2 cell cytotoxicity, dose response, cytotoxicity control, plate reader, cherry-pick, antagonist series (AID 743416); assay type: functional, cell-based
[7] = LGR2 antagonists, dose response, cell-based, HEK293, CRE-luciferase reporter, cherry pick, set 2 (AID 743343); assay type: functional;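 further: transfected cells were stimulated with diluted bursicon conditioned medium after compound addition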
[8] = MC4R antagonists, dose response, counter-screen for LGR2 antagonist project, cell-based, plate reader, cherry pick (AID 743444); assay type: functional;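 further: transfected HEK 293 cells stimulated with alpha-MSH peptide; potency of inhibitors of the alpha-MSH evoked signal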
[9] = HEK293 cell cytotoxicity, dose response, cytotoxicity control, plate reader, cherry-picked samples (AID 743446); assay type: functional, cell-based
[10] = target: T7, Oxysterols receptor LXR-beta (Homo sapiens, UniProt P55055); assay type: functional, cell-based;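 further: agonist activity at LXR measured by a cell-based luminescence readout across a dose range, run as a counterscreen for daf-12 agonists; HEK293 cells with Gal4-LXR fusion and GAL4-driven luciferase reporter; potency for activation of Gal4-LXR reporter so compounds are agonists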
T7 sequence (P55055 whole entry): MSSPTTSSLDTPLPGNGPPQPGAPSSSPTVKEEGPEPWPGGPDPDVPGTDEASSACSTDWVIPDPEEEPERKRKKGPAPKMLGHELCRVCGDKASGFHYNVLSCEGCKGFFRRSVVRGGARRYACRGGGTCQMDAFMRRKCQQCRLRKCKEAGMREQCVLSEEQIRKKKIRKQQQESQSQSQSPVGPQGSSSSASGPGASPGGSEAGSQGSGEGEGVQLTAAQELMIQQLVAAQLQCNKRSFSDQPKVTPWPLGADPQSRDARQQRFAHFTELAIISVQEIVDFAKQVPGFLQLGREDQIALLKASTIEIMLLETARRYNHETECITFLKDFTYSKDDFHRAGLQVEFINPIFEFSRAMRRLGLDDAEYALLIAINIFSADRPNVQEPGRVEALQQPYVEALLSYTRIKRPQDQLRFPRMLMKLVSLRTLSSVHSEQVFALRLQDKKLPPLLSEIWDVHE

[11] = system: Streptococcus sp. 'group A'; assay: growth inhibition of control SK(-) GAS strain, dose response, counter-screen for streptokinase expression inhibitor project, luminescence, kanamycin, BacTiterGlo, confirmation (AID 1900); assay type: functional, organism-based
Streptokinase A = target: T8, Streptokinase A (Streptococcus pyogenes serotype M1, UniProt P10520); assay: S. pyogenes streptokinase expression inhibitors, potency, dose response, plasminogen activation absorbance, OD405 (AID 1914); assay type: functional, Streptococcus pyogenes M1 GAS;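 further: secreted streptokinase activity via plasminogen activation per viability signal from cell pellet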
T8 sequence (P10520 whole entry): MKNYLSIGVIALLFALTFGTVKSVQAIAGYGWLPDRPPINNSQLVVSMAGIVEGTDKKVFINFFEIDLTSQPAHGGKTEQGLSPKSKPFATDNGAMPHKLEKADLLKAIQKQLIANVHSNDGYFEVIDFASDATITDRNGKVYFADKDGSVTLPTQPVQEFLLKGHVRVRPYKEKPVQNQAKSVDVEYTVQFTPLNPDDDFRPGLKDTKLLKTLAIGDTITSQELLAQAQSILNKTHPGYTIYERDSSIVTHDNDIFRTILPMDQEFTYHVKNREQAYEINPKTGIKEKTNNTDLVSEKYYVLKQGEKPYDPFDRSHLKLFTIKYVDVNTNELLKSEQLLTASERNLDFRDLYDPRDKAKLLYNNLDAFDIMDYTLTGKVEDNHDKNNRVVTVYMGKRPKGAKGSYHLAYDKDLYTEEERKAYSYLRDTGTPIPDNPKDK

[12] = inhibitors of intracellular T. cruzi replication, confirmation, NIH3T3 host cells, beta-gal luminescence (AID 2044); assay type: functional, cell-based;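 further: intracellular parasites grown in NIH/3T3 mouse fibroblasts as host cells; luminescent beta-galactosidase reporter signal from transgenic T. cruzi replicating inside host cells; inhibitors lower the luminescence signal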
[13] = cytotoxicity toward NIH3T3 fibroblasts, dose response, counter-screen, cell-based, ATP luminescence, mouse fibroblasts (AID 2010); assay type: functional;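 further: cells exposed to compound for about 90 hours before reading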
Streptococcus = assay: Group A Streptococcus viability loss, dose response, counter-screen for streptokinase expression inhibitor project, luminescence, BacTiterGlo (AID 1915); assay type: functional, organism-based;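 further: potency for reduction of bacterial viability or growth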
[14] = HepG2 cell cytotoxicity, dose response, cytotoxicity control, ATP luminescence, cherry-pick, activator set 2 (AID 1053143); assay type: functional, cell-based
SUMO-activating enzyme [15] = target: T9, SUMO-activating enzyme (Homo sapiens, UniProt Q9UBT2); assay: SUMOylation inhibitor hit validation, confirmation, SUMOylation inhibitor project, biochemical, AlphaScreen (AID 2018); assay type: functional
T9 sequence (Q9UBE0 whole entry): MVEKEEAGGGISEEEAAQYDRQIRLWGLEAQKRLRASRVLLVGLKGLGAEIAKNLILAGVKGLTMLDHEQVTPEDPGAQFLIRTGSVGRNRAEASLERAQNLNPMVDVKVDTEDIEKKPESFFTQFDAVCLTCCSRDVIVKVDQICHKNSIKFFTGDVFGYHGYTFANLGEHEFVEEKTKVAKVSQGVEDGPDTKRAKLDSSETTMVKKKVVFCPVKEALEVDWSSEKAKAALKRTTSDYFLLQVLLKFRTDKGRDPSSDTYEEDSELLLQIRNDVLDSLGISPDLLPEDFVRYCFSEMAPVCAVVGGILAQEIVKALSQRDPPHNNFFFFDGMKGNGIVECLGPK
T9 sequence (Q9UBT2 whole entry): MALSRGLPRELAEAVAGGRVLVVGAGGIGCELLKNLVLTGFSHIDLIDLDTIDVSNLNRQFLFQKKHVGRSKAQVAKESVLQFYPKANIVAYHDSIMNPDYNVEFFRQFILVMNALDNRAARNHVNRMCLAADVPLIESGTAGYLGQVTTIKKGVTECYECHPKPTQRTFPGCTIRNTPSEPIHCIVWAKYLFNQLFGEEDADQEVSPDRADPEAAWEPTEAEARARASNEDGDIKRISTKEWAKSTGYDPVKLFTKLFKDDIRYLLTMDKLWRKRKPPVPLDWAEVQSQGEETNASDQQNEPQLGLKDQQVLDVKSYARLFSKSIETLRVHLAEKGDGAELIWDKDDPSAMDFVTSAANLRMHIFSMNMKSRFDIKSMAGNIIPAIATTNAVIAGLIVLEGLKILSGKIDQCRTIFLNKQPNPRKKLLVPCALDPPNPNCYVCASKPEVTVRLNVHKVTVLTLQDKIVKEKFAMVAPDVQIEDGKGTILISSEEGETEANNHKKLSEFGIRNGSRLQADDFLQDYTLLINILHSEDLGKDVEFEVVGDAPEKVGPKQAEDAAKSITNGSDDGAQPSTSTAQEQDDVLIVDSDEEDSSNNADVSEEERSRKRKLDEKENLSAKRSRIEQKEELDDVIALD

[16] = target: Luciferin 4-monooxygenase (Photinus pyralis, UniProt P08659); assay: firefly luciferase enzyme inhibitors, dose response, biochemical, luminescence (AID 1891)
Chain of Luciferin 4-monooxygenase (P08659 whole entry): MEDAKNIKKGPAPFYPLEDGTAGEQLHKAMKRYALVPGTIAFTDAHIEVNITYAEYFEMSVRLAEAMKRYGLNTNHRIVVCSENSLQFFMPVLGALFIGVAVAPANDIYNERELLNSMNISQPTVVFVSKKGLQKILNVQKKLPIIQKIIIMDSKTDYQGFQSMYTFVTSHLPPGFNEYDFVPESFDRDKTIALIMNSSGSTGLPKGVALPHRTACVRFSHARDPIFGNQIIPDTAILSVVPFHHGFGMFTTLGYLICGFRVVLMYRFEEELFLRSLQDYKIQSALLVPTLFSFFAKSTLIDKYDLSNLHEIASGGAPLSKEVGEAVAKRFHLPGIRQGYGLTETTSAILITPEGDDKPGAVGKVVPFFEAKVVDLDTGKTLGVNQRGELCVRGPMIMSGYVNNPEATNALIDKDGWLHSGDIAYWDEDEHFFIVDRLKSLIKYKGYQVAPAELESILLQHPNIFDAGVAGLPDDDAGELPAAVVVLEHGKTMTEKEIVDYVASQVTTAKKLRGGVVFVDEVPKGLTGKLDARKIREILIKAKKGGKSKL

[17] = Luminescence Cell-Based Dose Confirmation HTS to Identify Inhibitors of Platelet Dense Granule Release. [Related pubchem assays: 1663 (Primary HTS), 1678 (Summary of Project)]; assay type: functional
SUMO-activating enzyme [18] = target: T9, SUMO-activating enzyme; assay: inhibitors of in vitro SUMOylation cascade, primary screen, biochemical, HTRF, uHTS (AID 2006); assay type: protein-complex assay
[19] = target: Heat shock protein HSP 90-alpha (Homo sapiens, UniProt P07900); assay type: functional, organism-based
[20] = target: 1-phosphatidylinositol 4,5-bisphosphate phosphodiesterase gamma-1 (Homo sapiens, UniProt P19174); assay: Counterscreen for inhibitors of phospholipase C isozymes (PLC-B3): Fluorescence-based biochemical high throughput dose response assay to identify inhibitors of phospholipase C isozymes (PLC-gamma1).
Chain of 1-phosphatidylinositol 4,5-bisphosphate phosphodiesterase gamma-1 (P19174 whole entry): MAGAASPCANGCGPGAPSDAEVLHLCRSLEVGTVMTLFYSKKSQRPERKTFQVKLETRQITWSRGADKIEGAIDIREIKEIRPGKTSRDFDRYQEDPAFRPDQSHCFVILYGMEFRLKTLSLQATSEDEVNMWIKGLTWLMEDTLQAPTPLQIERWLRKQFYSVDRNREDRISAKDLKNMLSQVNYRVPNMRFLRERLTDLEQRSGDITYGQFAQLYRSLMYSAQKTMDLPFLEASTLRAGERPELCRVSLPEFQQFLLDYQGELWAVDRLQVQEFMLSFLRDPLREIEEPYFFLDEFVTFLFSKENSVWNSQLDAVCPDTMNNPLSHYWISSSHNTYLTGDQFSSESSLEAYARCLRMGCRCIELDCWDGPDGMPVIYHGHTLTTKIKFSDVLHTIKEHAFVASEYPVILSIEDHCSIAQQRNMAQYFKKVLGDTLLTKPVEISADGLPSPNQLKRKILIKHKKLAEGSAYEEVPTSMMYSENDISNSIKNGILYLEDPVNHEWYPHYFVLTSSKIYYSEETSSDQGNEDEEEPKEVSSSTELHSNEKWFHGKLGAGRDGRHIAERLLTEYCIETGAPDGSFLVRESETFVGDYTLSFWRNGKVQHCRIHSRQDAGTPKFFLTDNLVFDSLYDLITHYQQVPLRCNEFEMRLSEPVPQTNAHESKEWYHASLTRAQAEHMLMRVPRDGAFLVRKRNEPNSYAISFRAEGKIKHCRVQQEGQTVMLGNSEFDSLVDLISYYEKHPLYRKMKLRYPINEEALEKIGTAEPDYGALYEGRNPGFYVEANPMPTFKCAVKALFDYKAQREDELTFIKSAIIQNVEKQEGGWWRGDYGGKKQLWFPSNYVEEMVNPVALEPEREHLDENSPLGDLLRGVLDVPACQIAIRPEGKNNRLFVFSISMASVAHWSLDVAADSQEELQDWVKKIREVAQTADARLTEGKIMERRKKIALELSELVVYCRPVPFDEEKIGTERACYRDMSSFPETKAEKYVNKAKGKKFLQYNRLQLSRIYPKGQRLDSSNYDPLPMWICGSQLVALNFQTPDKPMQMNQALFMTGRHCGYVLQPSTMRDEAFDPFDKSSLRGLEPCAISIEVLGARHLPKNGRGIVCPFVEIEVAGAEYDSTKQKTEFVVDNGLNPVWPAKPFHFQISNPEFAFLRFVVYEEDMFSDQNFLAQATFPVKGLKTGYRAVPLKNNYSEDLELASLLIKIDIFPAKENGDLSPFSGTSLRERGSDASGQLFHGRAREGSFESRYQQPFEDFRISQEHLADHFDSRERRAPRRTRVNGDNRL

[21] = target: 1-phosphatidylinositol 4,5-bisphosphate phosphodiesterase beta-3 (Homo sapiens, UniProt Q01970); assay: Fluorescence-based biochemical high throughput dose response assay to identify inhibitors of phospholipase C isozymes (PLC-B3).
Chain of 1-phosphatidylinositol 4,5-bisphosphate phosphodiesterase beta-3 (Q01970 whole entry): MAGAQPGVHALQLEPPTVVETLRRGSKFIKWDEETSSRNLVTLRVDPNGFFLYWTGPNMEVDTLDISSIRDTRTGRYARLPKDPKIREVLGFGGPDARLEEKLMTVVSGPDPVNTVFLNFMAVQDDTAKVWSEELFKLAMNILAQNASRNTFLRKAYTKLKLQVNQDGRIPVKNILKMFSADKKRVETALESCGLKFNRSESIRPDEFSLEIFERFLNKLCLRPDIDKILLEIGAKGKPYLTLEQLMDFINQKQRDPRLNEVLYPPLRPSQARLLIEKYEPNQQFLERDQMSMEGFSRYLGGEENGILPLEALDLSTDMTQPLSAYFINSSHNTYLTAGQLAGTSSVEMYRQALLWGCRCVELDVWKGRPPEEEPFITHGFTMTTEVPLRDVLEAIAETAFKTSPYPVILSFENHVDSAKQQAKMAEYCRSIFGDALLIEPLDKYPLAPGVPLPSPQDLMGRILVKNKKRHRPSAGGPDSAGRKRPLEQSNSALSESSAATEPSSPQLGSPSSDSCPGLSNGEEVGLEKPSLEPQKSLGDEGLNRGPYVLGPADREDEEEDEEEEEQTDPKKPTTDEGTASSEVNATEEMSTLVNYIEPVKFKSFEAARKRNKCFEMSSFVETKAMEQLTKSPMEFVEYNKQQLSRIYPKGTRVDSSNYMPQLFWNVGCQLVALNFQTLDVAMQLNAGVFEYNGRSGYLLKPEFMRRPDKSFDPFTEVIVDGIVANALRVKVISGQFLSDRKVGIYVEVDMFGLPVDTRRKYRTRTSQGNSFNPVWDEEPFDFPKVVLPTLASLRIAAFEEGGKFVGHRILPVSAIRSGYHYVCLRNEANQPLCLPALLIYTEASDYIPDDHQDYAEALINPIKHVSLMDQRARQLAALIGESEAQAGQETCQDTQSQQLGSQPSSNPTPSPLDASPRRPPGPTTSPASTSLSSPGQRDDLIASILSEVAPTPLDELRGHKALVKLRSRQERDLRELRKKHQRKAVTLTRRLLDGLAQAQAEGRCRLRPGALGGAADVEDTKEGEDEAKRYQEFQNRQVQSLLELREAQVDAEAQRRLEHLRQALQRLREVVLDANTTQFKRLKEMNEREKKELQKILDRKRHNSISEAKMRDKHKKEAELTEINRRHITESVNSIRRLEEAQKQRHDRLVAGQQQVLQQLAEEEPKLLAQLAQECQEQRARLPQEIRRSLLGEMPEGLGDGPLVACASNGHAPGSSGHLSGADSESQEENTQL

Cc1cc(C=O)c(C)n1-c1ccc(Cl)c(C(=O)O)c1
EC50 [1]: > 300 µM (not active)
EC50 [2]: > 300 µM (not active)
IC50 [3]: 4.61 µM (active)
AC50 (Caspase-6): 1.47 µM (active)
AC50 [4]: 10.6 µM (active)
AC50 (Caspase-7): > 70 µM (inactive)
AC50 (Caspase-3): 43.1 µM (active)

O=C(Nc1ccc2c(c1)OCCO2)c1ccccn1
AC50 (HEK293): 2.3 µM (active)
AC50 [5]: 19.9 µM (active)
AC50 [6]: 48.5 µM (active)
AC50 [7]: 3.29 µM (active)
AC50 [8]: 2.75 µM (active)
AC50 [9]: 27.3 µM (active)

Cc1ccc2nc(C)/c(=N\O)c(C)nc2c1
EC50 [10]: > 67.6 µM (inactive)

Cc1nn(-c2ccccc2)c(C)c1/C=N/Nc1nc2ccccc2[nH]1
EC50 [11]: 7.89 µM (active)
EC50 (Streptokinase A): > 150 µM (not active)
EC50 [12]: 2.15 µM (active)
EC50 [13]: > 60 µM (not active)
EC50 (Streptococcus): > 150 µM (not active)
AC50 [14]: 26 µM (active)

Nc1ncnc2c1ncn2[C@@H]1O[C@H](COP(=O)(O)O)[C@@H](O)[C@@H]1O
IC50 (SUMO-activating enzyme [15]): 7.95 µM (active)
EC50 [16]: 1.08 µM (active)
EC50 [17]: 0.946 µM (active)
IC50 (SUMO-activating enzyme [18]): 16.6 µM (active)
AC50 [19]: 1.92 µM (active)
IC50 [20]: 8.71 µM (active)
IC50 [21]: > 122 µM (inactive)
